# Laboratory results as given in patent US10005792B2, “Aminoindane-, aminotetrahydronaphthalene- and aminobenzocyclobutane-derived PRMT5-inhibitors” (CTXT PTY LTD, priority 2014, dated 2018).
# Counter-ions that a name gives are not always drawn.
# Molecular target: Full-length PRMT5 enzyme co-expressed with MEP50 (Homo sapiens (Human), UniProt O14744)
# Assay: Revised PRMT5 Biochemical Assay
# Conditions: 1 μM histone H4 derived peptide substrate, 1 μM S-Adenosyl methionine, 4 hours at 37 degree Celsius, Transcreener EPIGEN fluorescence polarisation
# Protocol: Compounds of the invention may be tested for in vitro activity in the following assay: A histone H4 derived peptide is used as substrate (amino acid sequence: […]NH2). Full-length PRMT5 enzyme (NCBI Reference sequence NP-006100.2) was co-expressed with Hiss-MEP50 in insect cells and purified via Nickel immobilized metal affinity and gel filtration chromatography (“the enzyme”).
# The 6 μL reactions are run in Greiner brand black 384-well low volume assay plates. All reactions contained assay buffer (phosphate buffered saline, 0.01% (v/v) Tween-20, 0.01% (w/v) albumin from chicken egg white, 1 mM Dithiothreitol, 1 μM peptide substrate, 1 μM S-Adenosyl methionine, and 15 ng/reaction enzyme, with the enzyme being omitted from negative control reactions. Compounds were added in a volume of 100 nL from dilution series prepared in DMSO, positive and negative control reactions receiving the same volume DMSO without compound. The plates were sealed with adhesive seals and incubated for 4 hours at 37 degree Celsius. Reaction progress was measured using the Transcreener™ EPIGEN methyltransferase assay (BellBrook Labs, Madison, Wis.) as recommended by the manufacturer. To each reaction 2 μL detection mix were added, containing coupling enzymes, fluorescence polarisation tracer, and AMP antibody. Plates were incubated for 90 minutes before being read on a PerkinElmer EnVision™ plate reader in fluorescence polarisation mode. IC50 values were obtained from the raw readings by calculating percent inhibition (% I) for each reaction relative to controls on the same plate (% I=(I−CN)/(CP−CN) where CN/CP are the averages of the negative/positive reactions, respectively), then fitting the % I data vs. compound concentration [I] to % I=([…]) where A is the lower asymptote, B is the upper asymptote, C is the IC50 value, and D is the slope.
# Full-length PRMT5 enzyme co-expressed with MEP50, sequence (O14744 whole entry): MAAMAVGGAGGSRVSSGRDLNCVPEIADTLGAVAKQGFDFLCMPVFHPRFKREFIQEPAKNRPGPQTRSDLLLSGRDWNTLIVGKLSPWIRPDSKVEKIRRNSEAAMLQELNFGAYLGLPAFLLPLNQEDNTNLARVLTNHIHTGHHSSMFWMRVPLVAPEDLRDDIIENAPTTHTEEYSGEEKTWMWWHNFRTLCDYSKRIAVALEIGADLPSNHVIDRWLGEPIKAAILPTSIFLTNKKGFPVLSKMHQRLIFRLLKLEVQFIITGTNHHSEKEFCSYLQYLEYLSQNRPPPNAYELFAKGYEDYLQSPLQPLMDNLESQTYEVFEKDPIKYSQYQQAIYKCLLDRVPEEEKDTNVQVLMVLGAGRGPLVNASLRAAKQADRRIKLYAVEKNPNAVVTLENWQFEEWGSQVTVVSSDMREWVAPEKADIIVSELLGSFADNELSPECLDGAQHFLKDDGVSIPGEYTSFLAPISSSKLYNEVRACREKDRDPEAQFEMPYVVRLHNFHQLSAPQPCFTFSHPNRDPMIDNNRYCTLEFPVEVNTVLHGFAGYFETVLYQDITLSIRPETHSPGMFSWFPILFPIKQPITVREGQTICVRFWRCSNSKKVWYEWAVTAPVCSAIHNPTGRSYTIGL
# Full-length PRMT5 enzyme co-expressed with MEP50, sequence (Q9BQA1 whole entry partner): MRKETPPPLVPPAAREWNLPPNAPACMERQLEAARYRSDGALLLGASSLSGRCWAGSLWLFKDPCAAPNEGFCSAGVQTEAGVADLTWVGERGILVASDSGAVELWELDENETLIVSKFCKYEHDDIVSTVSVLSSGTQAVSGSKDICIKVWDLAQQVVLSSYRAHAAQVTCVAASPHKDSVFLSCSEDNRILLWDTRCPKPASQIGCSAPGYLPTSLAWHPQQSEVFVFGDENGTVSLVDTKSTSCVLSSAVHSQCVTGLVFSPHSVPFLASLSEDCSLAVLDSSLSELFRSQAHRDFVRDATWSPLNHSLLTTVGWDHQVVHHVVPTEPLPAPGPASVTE
row,Structure (SMILES),IC50 [µM]
1,"O=C(NCC(O)CNC1Cc2ccccc2C1)c1ccc(C(=O)N2CCCCC2)nc1 (racemic) [Compound 67, N-(3-((2,3-dihydro-1H-inden-2-yl)amino)-2-hydroxypropyl)-6-(piperidine-1-carbonyl)nicotinamide]",6.87
2,"CCCOc1ccccc1C(=O)NCC(O)CNC1Cc2ccccc2C1 (racemic) [Compound 73, N-(3-((2,3-dihydro-1H-inden-2-yl)amino)-2-hydroxypropyl)-2-propoxybenzamide]",4.38
3,"CC(C)Oc1ccccc1C(=O)NCC(O)CNC1Cc2ccccc2C1 (racemic) [Compound 74, N-(3-((2,3-dihydro-1H-inden-2-yl)amino)-2-hydroxypropyl)-2-isopropoxybenzamide]",3.13
4,"COCc1ccccc1C(=O)NCC(O)CNC1Cc2ccccc2C1 (racemic) [Compound 79, N-(3-((2,3-dihydro-1H-inden-2-yl)amino)-2-hydroxypropyl)-2-(methoxymethyl)benzamide]",24
5,"O=C(NCC(O)CNC1Cc2ccccc2C1)c1ccn(Cc2ccccc2)c(=O)c1 (racemic) [Compound 82, 1-benzyl-N-(3-((2,3-dihydro-1H-inden-2-yl)amino)-2-hydroxypropyl)-2-oxo-1,2-dihydropyridine-4-carboxamide]",1.81
6,"CC(=O)N1CCN(C(=O)Cc2ccc(C(=O)NCC(O)CNC3Cc4ccccc4C3)cc2)CC1 (racemic) [Compound 83, 4-(2-(4-acetylpiperazin-1-yl)-2-oxoethyl)-N-(3-((2,3-dihydro-1H-inden-2-yl)amino)-2-hydroxypropyl)benzamide]",3.46
7,"CC(=O)N1CCN(C(=O)c2ccc(C(=O)NCC(O)CNC3Cc4ccccc4C3)cc2)CC1 (racemic) [Compound 84, 4-(4-acetylpiperazine-1-carbonyl)-N-(3-((2,3-dihydro-1H-inden-2-yl)amino)-2-hydroxypropyl)benzamide]",0.585
8,"Cn1ccc(C(=O)NCC(O)CNC2Cc3ccccc3C2)cc1=O (racemic) [Compound 85, N-(3-((2,3-dihydro-1H-inden-2-yl)amino)-2-hydroxypropyl)-1-methyl 2-oxo-1,2-dihydropyridine-4-carboxamide]",7.68
9,"O=C(NCC(O)CNC1Cc2ccccc2C1)c1ccc2c(c1)CN(C(=O)CC1CC1)C2 (racemic) [Compound 92, 2-(2-cyclopropylacetyl)-N-(3-((2,3-dihydro-1H-inden-2-yl)amino)-2-hydroxypropyl)isoindoline-5-carboxamide]",1.38
10,"O=C(NCC(O)CNC1Cc2ccccc2C1)c1ccc2c(c1)CN(C(=O)CC1CC1)CC2 (racemic) [Compound 93, 2-(2-cyclopropylacetyl)-N-(3-((2,3-dihydro-1H-inden-2-yl)amino)-2-hydroxypropyl)-1,2,3,4-tetrahydroisoquinoline-7-carboxamide]",0.505
11,"O=C(NCC(O)CNC1Cc2ccccc2C1)c1ccc2c(c1)CCN(C(=O)CC1CC1)C2 (racemic) [Compound 94, 2-(2-cyclopropylacetyl)-N-(3-((2,3-dihydro-1H-inden-2-yl)amino)-2-hydroxypropyl)-1,2,3,4-tetrahydroisoquinoline-6-carboxamide]",1.35
12,"CC(=O)N1CCc2cc(C(=O)NCC(O)CNC3Cc4ccccc4C3)ccc2C1 (racemic) [Compound 95, 2-acetyl-N-(3-((2,3-dihydro-1H-inden-2-yl)amino)-2-hydroxypropyl)-1,2,3,4-tetrahydroisoquinoline-6-carboxamide]",0.931
13,"CC(=O)N1CCc2ccc(C(=O)NCC(O)CNC3Cc4ccccc4C3)cc2C1 (racemic) [Compound 96, 2-acetyl-N-(3-((2,3-dihydro-1H-inden-2-yl)amino)-2-hydroxypropyl)-1,2,3,4-tetrahydroisoquinoline-7-carboxamide]",0.733
14,"O=C(NCC(O)CNC1Cc2ccccc2C1)c1ccccc1OCC(F)(F)F (racemic) [Compound 97, N-(3-((2,3-dihydro-1H-inden-2-yl)amino)-2-hydroxypropyl)-2-(2,2,2-trifluoroethoxy)benzamide]",4.32
15,"C[C@@H]1COC[C@@H](C)N1C(=O)c1ccc(C(=O)NCC(O)CNC2Cc3ccccc3C2)cc1 (mixture of isomers) [Compound 101, N-(3-((2,3-dihydro-1H-inden-2-yl)amino)-2-hydroxypropyl)-4-((3R,5R)-3,5-dimethylmorpholine-4-carbonyl)benzamide]",0.457
16,"CC(=O)N1CCC(Nc2cccc(C(=O)NC[C@@H](O)CNC3Cc4ccccc4C3)c2)CC1 [Compound 42, (S)-3-((1-Acetylpiperidin-4-yl)amino)-N-(3-((2,3-dihydro-1H-inden-2-yl)amino)-2-hydroxypropyl)benzamide]",0.137

row,Structure (SMILES),IC50 [µM]
1,"CN(c1cc(C(=O)NCC(O)CNC2Cc3ccccc3C2)ccn1)C1CCCC1 (stereo not shown) [Compound 43, 2-(cyclopentyl(methyl)amino)-N-(3-((2,3-dihydro-1H-inden-2-yl)amino)-2-hydroxypropyl)isonicotinamide]",1.01
2,"O=C(NCC(O)CNC1Cc2ccccc2C1)c1ccnc(NC2CCCC2)c1 (stereo not shown) [Compound 44, 2-(cyclopentylamino)-N-(3-((2,3-dihydro-1H-inden-2-yl)amino)-2-hydroxypropyl)isonicotinamide]",0.373
3,"O=C(NCC(O)CNC1Cc2ccccc2C1)c1cc(-c2ccccn2)[nH]n1 (stereo not shown) [Compound 45, N-(3-((2,3-dihydro-1H-inden-2-yl)amino)-2-hydroxypropyl)-5-(pyridin-2-yl)-1H-pyrazole-3-carboxamide]",12.8
4,"O=C(NCC(O)CNC1Cc2ccccc2C1)c1cnn(-c2cccnc2)c1 (stereo not shown) [Compound 46, N-(3-((2,3-dihydro-1H-inden-2-yl)amino)-2-hydroxypropyl)-1-(pyridin-3-yl)-1H-pyrazole-4-carboxamide]",4.99
5,"O=C(NCC(O)CNC1Cc2ccccc2C1)c1ccnc(N2CCOCC2)c1 (stereo not shown) [Compound 47, N-(3-((2,3-dihydro-1H-inden-2-yl)amino)-2-hydroxypropyl)-2-morpholinoisonicotinamide]",11.4
6,"O=C(NCC(O)CNC1Cc2ccccc2C1)c1ccnc(N2CCCC2)c1 (stereo not shown) [Compound 48, N-(3-((2,3-dihydro-1H-inden-2-yl)amino)-2-hydroxypropyl)-2-(pyrrolidin-1-yl)isonicotinamide]",4.78
7,"O=C(NCC(O)CNC1Cc2ccccc2C1)c1ccnc(-n2cccn2)c1 (stereo not shown) [Compound 49, N-(3-((2,3-dihydro-1H-inden-2-yl)amino)-2-hydroxypropyl)-2-(1H-pyrazol-1-yl)isonicotinamide]",25.3
8,"CC(=O)N1CCC(Oc2cc(C(=O)NCC(O)CNC3Cc4ccccc4C3)ccn2)CC1 (stereo not shown) [Compound 50, 2-((1-Acetylpiperidin-4-yl)oxy)-N-(3-((2,3-dihydro-1H-inden-2-yl)amino)-2-hydroxypropyl)isonicotinamide]",0.466
9,"O=C(NCC(O)CNC1Cc2ccccc2C1)c1ccnc(OC2CCNCC2)c1 (stereo not shown) [Compound 51, N-(3-((2,3-dihydro-1H-inden-2-yl)amino)-2-hydroxypropyl)-2-(piperidin-4-yloxy)isonicotinamide]",0.709
10,"CC(=O)N1CCC(Nc2cncc(C(=O)NCC(O)CNC3Cc4ccccc4C3)n2)CC1 (stereo not shown) [Compound 52, 6-((1-Acetylpiperidin-4-yl)amino)-N-(3-((2,3-dihydro-1H-inden-2-yl)amino)-2-hydroxypropyl)pyrazine-2-carboxamide]",74.6
11,"CC(=O)N1CCC(Nc2nccc(C(=O)NCC(O)CNC3Cc4ccccc4C3)n2)CC1 (stereo not shown) [Compound 54, 2-((1-Acetylpiperidin-4-yl)amino)-N-(3-((2,3-dihydro-1H-inden-2-yl)amino)-2-hydroxypropyl)pyrimidine-4-carboxamide]",5.77
12,"CC(=O)N1CCC(Nc2cccc(C(=O)NCC(O)CNC3Cc4ccccc4C3)n2)CC1 (stereo not shown) [Compound 57, 6-((1-Acetylpiperidin-4-yl)amino)-N-(3-((2,3-dihydro-1H-inden-2-yl)amino)-2-hydroxypropyl)picolinamide]",2.53
13,"CC(=O)N1CC(Nc2cc(C(=O)NCC(O)CNC3Cc4ccccc4C3)ncn2)C1 (stereo not shown) [Compound 58, 6-((1-Acetylazetidin-3-yl)amino)-N-(3-((2,3-dihydro-1H-inden-2-yl)amino)-2-hydroxypropyl)pyrimidine-4-carboxamide 2,2,2-trifluoroacetic acid salt]",0.883
14,"CC(=O)N1CCC(Nc2cc(C(=O)NCC(O)CNC3Cc4ccccc4C3)ncn2)CC1 (stereo not shown) [Compound 59, 6-((1-Acetylpiperidin-4-yl)amino)-N-(3-((2,3-dihydro-1H-inden-2-yl)amino)-2-hydroxypropyl)pyrimidine-4-carboxamide 2,2,2-trifluoroacetic acid salt]",0.487
15,"O=C(NC[C@@H](O)CNC1Cc2ccccc2C1)c1ccc(C(=O)N2CCC(O)CC2)cc1 [Compound 60, (S)-N-(3-((2,3-dihydro-1H-inden-2-yl)amino)-2-hydroxypropyl)-4-(4-hydroxypiperidine-1-carbonyl)benzamide]",0.63
